Earlier results on one compound are cited in patent US5238927A (priority 1992, dated 1993).

The conditions of this data set: in vivo.

As for `NC(=O)c1cc[n+](COC[n+]2ccccc2C=NO)cc1` [HI-6, 1-(2-hydroxyiminomethylpyridinium)-2-(4-carboxyamidopyridinium)-dimethyl ether dichloride], the “effectiveness as antidote in the treatment of organophosphorus toxin nerve poisoning” value is on record as “most effective known antidote”.
